Source: patent publication US11701361B2, “p110-delta inhibitors treat and prevent autoimmunity while sparing the ability to mount an immune response to exogenous immunogens” (THE REGENTS OF THE UNIVERSITY OF COLORADO, priority 2018, dated 2023)

Experiments:
SHP-1^−/− B cells = experiment: adoptive transfer of autoreactive SHP-1-/- Ars/A1 B cells, loss of anergy; assay type: in vivo, mouse
Description: Except where otherwise indicated, 6-16 week old mice were used in all experiments. Both male and female mice were used, but experiments were sex matched and both sexes gave identical results, with the exception of only female mice being used in the VH125.NOD experiments as female mice develop accelerated disease. hCD20-TamCre animals (Khalil, et al. Science 336: 1178-81) were intercrossed with mice carrying the rosa26-flox-STOP-YFP allele (Srinivas, et al., BMC Dev. Biol. 1:4), generating mice in which YFP is expressed in B cells upon Cre activation. These mice were crossed with Ars/A1 (Benschop, et al., Immunity 14: 33-43) transgenic mice to generate hCD20-TamCre×rosa26-flox-STOP-YFP×Ars/A1 mice. B cells from these mice will be referred to as WT Ars/A1. These mice were also crossed with SHIP-1^flox/flox mice (Karlsson, et al. J Exp Med 198: 333-40). hCD20-TamCre×rosa26-flox-STOP-YFP×Ars/A1 mice were also crossed to PTEN^flox/flox mice (Anzelon, et al., Nat Immunol 4: 287-94) and SHP-1^flox/flox mice to generate mice in which SHIP-1, PTEN and SHP-1 deletion can be induced in anergic B cells. hCD20-TamCre×rosa26-flox-STOP-YFP×PTEN^flox/flox×Ars/A1 were crossed to hCD20-TamCre×rosa26-flox-STOP-YFP×SHIP-1^flox/flox×Ars/A1 to generate hCD20-TamCre×rosa26-flox-STOP-YFPx PTEN^flox/wt×SHIP-1^flox/wt×Ars/A1 to allow for the double haploinsufficiency of both PTEN and SHIP-1 within B cells.
2 hours before adoptive transfer, C57BL/6 recipient mice received 200 rads irradiation. […] B cells from donor mice were isolated via depletion of CD43+ cells with anti-CD43-conjugated magnetic beads (MACS anti-mouse CD43; Miltenyi Biotec). Alternatively, CD4+ T cells were isolated via CD4 positive selection (MACS anti-mouse CD4 (L3T4) Miltenyi Biotec). Resultant populations were >97% pure based on flow cytometric analyses. Donor B cells were labeled with either CellTrace Violet (Molecular Probes) or CFSE (Molecular Probes) at 5 μM for 5 minutes at room temperature prior to transfer. Donor CD4 T cells were labeled with CFSE (Molecular Probes) at 5 μM for 5 minutes at room temperature prior to transfer. 1-2×10^6 donor cells in 200 μl PBS were adoptively transferred via IV injection. 24 hours post transfer, tamoxifen was administered to activate Cre. Tamoxifen (Sigma-Aldrich) was dissolved in 100% corn oil (Sigma-Aldrich) at 20 mg/ml. Recipient mice were injected IP with 100 μl (2 mg) on two consecutive days.
Diet dose (DD) is calculated by multiplying the single daily dose (SD) by the body weight of a mouse (BW) and dividing that by the daily food intake (FI) [DD=(SD×BW)/FI].
For VH125.NOD experiments animals are placed on control chow immediately after weaning.
Spleens were mechanically disrupted, single-cell suspensions were generated, and red blood cells were lysed with ammonium chloride TRIS. Cells were resuspended in PBS containing 1% FBS and incubated with indicated antibodies. For analysis of cell surface markers, antibodies against the following molecules were used: B220-PE (BioLegend), B220-BV786 (BD Biosciences), B220-BV510 (BioLegend), CD4-BV711 (BioLegend), CD8-BV421 (BioLegend), CD138-PECy7 (BioLegend), CD69-BV786 (BD Biosciences), CD86-PerCPCy5.5 (BioLegend). After cell surface staining, the cells were fixed and permeabilized with Cytofix/Cytoperm (BD) per manufacturer's instructions and stained with Dylight650-E4 anti-Ars/A1 idiotype (produced and conjugated in our laboratory) OR HEL-650 (produced and conjugated in our laboratory) and Alexa Fluor 488-anti-GFP (rabbit polyclonal; Life Technologies). Events were collected on a CyAn ADP (Dako) and subsequent analysis using FlowJo software (Tree Star).
For detection of IgM^a anti-Ars antibodies, microtiter plates were coated with 10 μg/ml Ars-BSA16 in PBS and blocked with 2 mg/ml BSA in PBS 0.05% Tween-20. For detection of IgM^a anti-HEL antibodies, microtiter plates were coated with 10 μg/ml HEL in PBS and blocked with 2 mg/ml BSA in PBS 0.05% Tween-20. […]

[1] = tested on: splenic B cells from C57BL/6 mice; experiment: BCR-mediated calcium flux in B cells; assay type: cell-based, mouse; settings: 15 nM, 60 nM and 490 nM idelalisib added simultaneously with anti-Ig heavy and light chain F(ab′)2
Description: For measurements of intracellular free calcium concentration ([Ca^2+]i), RBC-depleted single-cell suspended splenocytes were simultaneously stained with CD8-PE (BD Biosciences), CD4-APC (BioLegend) or B220-PE and loaded with Indo-1 acetoxymethyl (Molecular Probes), as described previously (Gauld, et al., Nat Immunol 6: 1160-1167). For analysis of ([Ca^2+]i), cells were suspended at 10×10^6 cells/ml in warm IMDM+2% FBS in a 500 ul volume. […] Mean relative ([Ca^2+]i) was monitored over time using an LSR Fortessa X-20 (BD) with analysis using FlowJo software.

AKT = experiment: phosphorylated signaling intermediaries after BCR stimulation: AKT; assay type: cell-based, mouse; settings: all doses of inhibitor (15, 60, 490 nM), preincubation
Description: (§1) Cells are then washed 2× in serum free IMDM, and stimulated with 5 μg/ml of F(ab′)2 rabbit anti-mouse anti-IgG (H&L; Invitrogen) or 10 μg/ml anti-CD3-biotin (BD Biosciences)+20 μg/ml streptavidin (Sigma-Aldrich) for 2 minutes. Signaling was stopped by addition of 20% PFA to a final concentration of 2%, incubated at 37° C. for 15 minutes and resuspended in 100% ice-cold MeOH (directly from −80° C.). Cells were then placed on ice for 30 minutes and placed at −20° C. for storage. For analysis, cells were stained with B220-BV786, CD4-BV711, CD8-BV421, and/or pAKT-Alexa Fluor 647 (BD Biosciences), pPLCγ-PE (BD Biosciences), pBTK-BV421 (BD Biosciences) pSyk/Zap70-PE (BD Biosciences) at room temperature for 1 hour. Cells were washed 3 times and samples were acquired in triplicate on an LSR Fortessa X-20 (BD) with analysis using FlowJo software.

BTK = experiment: phosphorylated signaling intermediaries after BCR stimulation: BTK; assay type: cell-based, mouse; settings: all doses of inhibitor (15, 60, 490 nM), preincubation
Description: as §1

[2] = 0.9375 mg/kg or 3.75 mg/kg chow vs vehicle

CC[C@H](Nc1ncnc2nc[nH]c12)c1nc2cccc(F)c2c(=O)n1-c1ccccc1 [idelalisib, 5-fluoro-3-phenyl-2-[(1S)-1-(7H-purin-6-ylamino)propyl]-4(3H)-quinazolinone]
differentiation of SHP-1−/− B cells (plasmablasts) (SHP-1^−/− B cells; [2]): equivalent amounts
proliferation of SHP-1−/− B cells (SHP-1^−/− B cells; [2]): equivalent amounts
differentiation of SHP-1−/− B cells (plasmablasts) (SHP-1^−/− B cells; 30 mg/kg chow): decreased
proliferation of SHP-1−/− B cells (SHP-1^−/− B cells; 30 mg/kg chow): decreased
recovery of adoptively transferred SHP-1−/− B cells from the spleens (trend of reduced recovery) (SHP-1^−/− B cells; animals receiving idelalisib-containing chow): not significant
autoimmunity (autoantibody, ASCs) (SHP-1^−/− B cells; high dose (30 mg/kg chow)): blocked
loss of anergy caused by SHP-1 induced deficiency (autoantibody, ASCs) (SHP-1^−/− B cells; low and intermediate dose (0.9375 and 3.75 mg/kg chow)): no effect
calcium mobilization [1]: suppressed
phosphorylation of AKT (AKT): significantly reduced
phosphorylation of BTK (BTK): significantly reduced
